Drawing on ChEMBL document CHEMBL3046501, “Synthesis, characterization & anticonvulsant activity of amide derivatives of 4-amino-1,2-naphthoquinone” (Med Chem Res, 2013), this text covers Activity for eleven molecules.

Active and inactive are the calls of the source. The rule behind the calls is not given here.

The test system of series [1] is Mus musculus. Nature of the series: Anticonvulsant activity in Swiss albino Mus musculus (mouse) assessed as protection against maximal electroshock-induced seizures at 20 mg/kg, ip after 3 hr. Type of series: functional, organism-based. Set-up: dose 20 mg/kg. (In the maximal electroshock model the usual endpoint is tonic extension of the hind limbs.)
The subject of series [2] is Mus musculus. Nature of the series: Anticonvulsant activity in Swiss albino Mus musculus (mouse) assessed as protection against maximal electroshock-induced seizures at 40 mg/kg, ip after 4 hr. The class given is functional, organism-based. Set-up: dose 40 mg/kg.
Series [3] deals with Mus musculus. Nature of the series: Anticonvulsant activity in Swiss albino Mus musculus (mouse) assessed as protection against maximal electroshock-induced seizures at 10 mg/kg, ip after 1 hr. The class given is functional, organism-based. Set-up: dose 10 mg/kg.
In series [4] the test system is Mus musculus. Nature of the series: Anticonvulsant activity in Swiss albino Mus musculus (mouse) assessed as protection against maximal electroshock-induced seizures at 40 mg/kg, ip after 3 hr. Type of series: functional, organism-based. Set-up: dose 40 mg/kg.
Series [5] deals with Mus musculus. Nature of the series: Anticonvulsant activity in Swiss albino Mus musculus (mouse) assessed as protection against subcutaneous pentylenetetrazol-induced seizures at 10 mg/kg, ip after 4 hr. Type of series: functional, organism-based. Set-up: dose 10 mg/kg.
Series [6] deals with Mus musculus. The series is described as follows: Anticonvulsant activity in Swiss albino Mus musculus (mouse) assessed as protection against maximal electroshock-induced seizures at 20 mg/kg, ip after 1 hr. Type of series: functional, organism-based. Set-up: dose 20 mg/kg.
For series [7], the system named is Mus musculus. Nature of the series: Neurotoxicity in Swiss albino Mus musculus (mouse) assessed as minimal motor impairment at 30 mg/kg, ip after 4 hr. Set-up: dose 30 mg/kg, route intraperitoneal. Type of series: toxicity, organism-based. As to conditions: in vivo.
Series [8] deals with Mus musculus. Nature of the series: Anticonvulsant activity in Swiss albino Mus musculus (mouse) assessed as protection against maximal electroshock-induced seizures at 10 mg/kg, ip after 4 hr. Type of series: functional, organism-based. Set-up: dose 10 mg/kg.
In series [9] the test system is Mus musculus. The series is described as follows: Anticonvulsant activity in Swiss albino Mus musculus (mouse) assessed as protection against maximal electroshock-induced seizures at 20 mg/kg, ip after 4 hr. The class given is functional, organism-based. Set-up: dose 20 mg/kg.
The subject of series [10] is Mus musculus. Nature of the series: Anticonvulsant activity in Swiss albino Mus musculus (mouse) assessed as protection against subcutaneous pentylenetetrazol-induced seizures at 20 mg/kg, ip after 4 hr. Set-up: dose 20 mg/kg. The class given is functional, organism-based.
Series [11] has as its system Mus musculus. Nature of the series: Anticonvulsant activity in Swiss albino Mus musculus (mouse) assessed as protection against maximal electroshock-induced seizures at 40 mg/kg, ip after 1 hr. Type of series: functional, organism-based. Set-up: dose 40 mg/kg.
Series [12] relates to Mus musculus. Nature of the series: Anticonvulsant activity in Swiss albino Mus musculus (mouse) assessed as protection against subcutaneous pentylenetetrazol-induced seizures at 40 mg/kg, ip after 4 hr. Set-up: dose 40 mg/kg. Type of series: functional, organism-based.
For series [13], the system named is Mus musculus. Nature of the series: Anticonvulsant activity in Swiss albino Mus musculus (mouse) assessed as protection against subcutaneous pentylenetetrazol-induced seizures at 20 mg/kg, ip after 0.5 hr. Type of series: functional, organism-based. Set-up: dose 20 mg/kg.
Series [14] deals with Mus musculus. Nature of the series: Anticonvulsant activity in Swiss albino Mus musculus (mouse) assessed as protection against subcutaneous pentylenetetrazol-induced seizures at 40 mg/kg, ip after 0.5 hr. Set-up: dose 40 mg/kg. Type of series: functional, organism-based.
In series [15] the test system is Mus musculus. The series is described as follows: Anticonvulsant activity in Swiss albino Mus musculus (mouse) assessed as protection against maximal electroshock-induced seizures at 10 mg/kg, ip after 2 hr. Type of series: functional, organism-based. Set-up: dose 10 mg/kg.
Series [16] deals with Mus musculus. The series is described as follows: Anticonvulsant activity in Swiss albino Mus musculus (mouse) assessed as protection against maximal electroshock-induced seizures at 10 mg/kg, ip after 3 hr. Set-up: dose 10 mg/kg. Type of series: functional, organism-based.
The test system of series [17] is Mus musculus. Nature of the series: Anticonvulsant activity in Swiss albino Mus musculus (mouse) assessed as protection against maximal electroshock-induced seizures at 20 mg/kg, ip after 2 hr. The class given is functional, organism-based. Set-up: dose 20 mg/kg.
Series [18] has as its system Mus musculus. The series is described as follows: Anticonvulsant activity in Swiss albino Mus musculus (mouse) assessed as protection against subcutaneous pentylenetetrazol-induced seizures at 10 mg/kg, ip after 0.5 hr. Type of series: functional, organism-based. Set-up: dose 10 mg/kg.
Series [19] has as its system Mus musculus. The series is described as follows: Anticonvulsant activity in Swiss albino Mus musculus (mouse) assessed as protection against maximal electroshock-induced seizures at 40 mg/kg, ip after 2 hr. Type of series: functional, organism-based. Set-up: dose 40 mg/kg.
In series [20] the test system is Mus musculus. Nature of the series: Anticonvulsant activity in Swiss albino Mus musculus (mouse) assessed as protection against maximal electroshock-induced seizures at 5 mg/kg, ip after 3 hr. Set-up: dose 5 mg/kg. Type of series: functional, organism-based.
The subject of series [21] is Mus musculus. The series is described as follows: Anticonvulsant activity in Swiss albino Mus musculus (mouse) assessed as protection against maximal electroshock-induced seizures at 5 mg/kg, ip after 1 hr. The class given is functional, organism-based. Set-up: dose 5 mg/kg.
Series [22] deals with Mus musculus. Nature of the series: Anticonvulsant activity in Swiss albino Mus musculus (mouse) assessed as protection against subcutaneous pentylenetetrazol-induced seizures at 5 mg/kg, ip after 0.5 hr. Type of series: functional, organism-based. Set-up: dose 5 mg/kg.

Consider `CC(=O)NCC(=O)NC1=CC(=O)C(=O)c2ccccc21`, for which the outcome in [1] and in series [3] was Active. Also, the result in series [2], in [4] and in series [5] was inactive.
Take `CCC(=O)NC1=CC(=O)C(=O)c2ccccc21`: the outcome in [6] was Active. The Activity result in [7] was “Non-toxic”. Further, the result in series [8], in [9], in series [10] and in series [5] was inactive.
As to `CCCC(=O)NC1=CC(=O)C(=O)c2ccccc21`, the outcome in series [1], in [6], in series [11], in series [12], in series [4] and in series [13] was Active. In [14], the result was Active. For the same molecule, the result in series [8] was inactive.
Take `O=C1C=C(NC(=O)c2cccnc2)c2ccccc2C1=O`: the outcome in series [8], in [9] and in series [15] was inactive.
`CC(C)CC(=O)NC1=CC(=O)C(=O)c2ccccc21`: the result in series [1], in [6], in [11], in [16], in [4] and in series [13] was Active. Besides, the result in series [14] was Active.
Consider `CC(C)C(=O)NC1=CC(=O)C(=O)c2ccccc21`, for which the result in [6], in [11] and in series [14] was Active.
In the case of `CCCCCC(=O)NC1=CC(=O)C(=O)c2ccccc21`, the outcome in series [17], in series [6], in series [2], in series [12], in [3] and in series [13] was Active. Moreover, the result in [14] and in series [15] was Active.
Regarding `O=C1C=C(NC(=O)c2ccccc2)c2ccccc2C1=O`, the outcome in [18], in series [8], in series [9], in series [5] and in series [15] was inactive.
Take `CC(=O)NC1=CC(=O)C(=O)c2ccccc21`: the result in series [6] and in [11] was Active. In addition, the outcome in series [2], in [16], in series [8], in series [9], in series [10] and in [5] was inactive.
For `CC(=O)Nc1ccc(C(=O)NC2=CC(=O)C(=O)c3ccccc32)cc1`, the outcome in series [17], in series [6], in series [2], in series [19], in series [11] and in series [12] was Active. The outcome in [3], in [9], in series [13], in series [14] and in series [15] was Active. For the same molecule, the outcome in series [10] was inactive.
Turning to `O=C1NC(=O)C(c2ccccc2)(c2ccccc2)N1`, the outcome in series [20], in [21] and in series [22] was Active.
